The values below come from patent US11208396B2, “Oxime compounds as agonists of the muscarinic M1 and/or M4 receptor” (Heptares Therapeutics Limited, priority 2015, dated 2021).

Common to all, as to type: cell-based
Assay [1] addresses T1, human muscarinic M1 receptor (Homo sapiens, UniProt P11229).
T1 sequence (P11229 1-460): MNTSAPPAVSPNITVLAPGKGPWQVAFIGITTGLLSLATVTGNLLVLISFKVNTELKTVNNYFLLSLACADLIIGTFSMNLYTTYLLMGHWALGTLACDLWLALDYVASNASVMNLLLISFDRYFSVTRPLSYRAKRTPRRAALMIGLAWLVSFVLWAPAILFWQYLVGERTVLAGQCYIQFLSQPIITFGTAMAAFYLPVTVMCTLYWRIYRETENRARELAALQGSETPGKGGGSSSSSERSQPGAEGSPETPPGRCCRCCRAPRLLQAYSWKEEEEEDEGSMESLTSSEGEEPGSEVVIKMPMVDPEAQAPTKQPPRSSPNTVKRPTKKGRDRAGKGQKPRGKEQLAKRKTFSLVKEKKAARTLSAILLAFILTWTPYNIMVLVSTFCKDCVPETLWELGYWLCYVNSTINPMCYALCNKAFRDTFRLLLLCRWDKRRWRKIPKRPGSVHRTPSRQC
Put plainly: Alphascreen Surefire phospho-ERK1/2 functional assay, M1. On the procedure:
(§1) ERK1/2 phosphorylation is a downstream consequence of both Gq/11 and Gi/o protein coupled receptor activation, making it highly suitable for the assessment of M1, M3 (Gq/11 coupled) and M2, M4 receptors (Gi/o coupled), rather than using different assay formats for different receptor subtypes. CHO cells stably expressing the human muscarinic M1, M2, M3 or M4 receptor were plated (25K/well) onto 96-well tissue culture plates in MEM-alpha+10% dialysed FBS. Once adhered, cells were serum-starved overnight. Agonist stimulation was performed by the addition of 5 μL agonist to the cells for 5 min (37° C.). Media was removed and 50 μL of lysis buffer added. After 15 min, a 4 μL sample was transferred to 384-well plate and 7 μL of detection mixture added. Plates were incubated for 2 h with gentle agitation in the dark and then read on a PHERAstar plate reader.
(§2) pEC50 and Emax figures were calculated from the resulting data for each receptor subtype.
(In general: In Alpha technology, singlet oxygen from a donor bead excites a nearby acceptor bead.)

Assay [2] concerns the target T2, human muscarinic M2 receptor (Homo sapiens, UniProt P08172).
T2 sequence (P08172 1-466): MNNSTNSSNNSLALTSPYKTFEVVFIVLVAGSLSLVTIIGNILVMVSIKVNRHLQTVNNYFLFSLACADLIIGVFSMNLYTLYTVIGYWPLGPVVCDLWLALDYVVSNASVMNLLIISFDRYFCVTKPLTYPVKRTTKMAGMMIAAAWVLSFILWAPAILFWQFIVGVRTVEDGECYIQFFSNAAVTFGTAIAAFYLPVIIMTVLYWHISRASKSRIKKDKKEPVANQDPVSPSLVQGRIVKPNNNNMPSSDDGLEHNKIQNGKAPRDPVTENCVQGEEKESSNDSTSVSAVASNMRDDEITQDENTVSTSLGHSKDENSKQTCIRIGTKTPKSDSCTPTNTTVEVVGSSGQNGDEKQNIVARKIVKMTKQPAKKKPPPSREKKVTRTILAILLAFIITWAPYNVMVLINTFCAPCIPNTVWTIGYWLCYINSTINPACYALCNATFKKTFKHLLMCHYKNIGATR
Put plainly: Alphascreen Surefire phospho-ERK1/2 functional assay, M2. On the procedure: as §1, §2

In assay [3] the target is T3, human muscarinic M4 receptor (Homo sapiens, UniProt P08173).
T3 construct: expressed in transfected cells
T3 sequence (P08173 1-479): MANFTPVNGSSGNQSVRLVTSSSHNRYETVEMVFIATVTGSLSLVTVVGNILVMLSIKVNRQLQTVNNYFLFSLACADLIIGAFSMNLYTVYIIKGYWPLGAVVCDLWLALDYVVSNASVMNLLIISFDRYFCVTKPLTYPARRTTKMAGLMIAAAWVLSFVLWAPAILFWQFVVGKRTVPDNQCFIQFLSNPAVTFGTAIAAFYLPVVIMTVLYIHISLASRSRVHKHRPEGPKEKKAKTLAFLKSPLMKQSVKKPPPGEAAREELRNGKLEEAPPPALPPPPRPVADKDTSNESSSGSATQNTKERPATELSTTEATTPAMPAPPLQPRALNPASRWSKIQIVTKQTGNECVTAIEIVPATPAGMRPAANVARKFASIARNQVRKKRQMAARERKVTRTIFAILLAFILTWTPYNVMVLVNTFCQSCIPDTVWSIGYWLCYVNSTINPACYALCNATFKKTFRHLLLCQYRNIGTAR
Put plainly: Alphascreen Surefire phospho-ERK1/2 functional assay, M4. The method, then: as §1, §2

The target of assay [4] is T4, human muscarinic M3 receptor (Homo sapiens, UniProt P20309).
T4 construct: expressed in transfected cells
T4 sequence (P20309 whole entry): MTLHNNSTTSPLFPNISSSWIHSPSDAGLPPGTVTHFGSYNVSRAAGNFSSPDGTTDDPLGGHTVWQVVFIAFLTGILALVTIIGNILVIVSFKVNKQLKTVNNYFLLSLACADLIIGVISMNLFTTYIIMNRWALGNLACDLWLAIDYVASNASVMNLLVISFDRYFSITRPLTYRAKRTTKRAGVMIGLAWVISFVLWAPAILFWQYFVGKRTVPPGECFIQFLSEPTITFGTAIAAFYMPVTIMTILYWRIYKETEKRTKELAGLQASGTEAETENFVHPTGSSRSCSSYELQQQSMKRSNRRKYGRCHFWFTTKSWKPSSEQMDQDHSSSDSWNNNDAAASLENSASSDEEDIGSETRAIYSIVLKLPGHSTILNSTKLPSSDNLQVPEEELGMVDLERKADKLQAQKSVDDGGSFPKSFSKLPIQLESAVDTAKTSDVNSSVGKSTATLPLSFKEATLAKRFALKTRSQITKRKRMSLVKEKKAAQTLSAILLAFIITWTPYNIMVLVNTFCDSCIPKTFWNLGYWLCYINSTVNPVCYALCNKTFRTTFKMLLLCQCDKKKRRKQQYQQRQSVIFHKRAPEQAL
Put plainly: Alphascreen Surefire phospho-ERK1/2 functional assay, M3. The method, then: as §1, §2

Structures are written as SMILES.

Broadly, the Emax is the maximal effect, on the per cent scale that the assay sets.

Take `CCCC(=NOC)C1CCN(C2CC3(CCN(C(=O)OCC)C3)C2)CC1` (single isomer, unassigned) [2-3 Isomer 4]: the EC50 in assay [1] (CHO cells stably expressing human M1, agonist 5 min, 37° C., read-out: pEC50 M1 (converted)) is 158 nM; in assay [2] (CHO cells stably expressing human M2, agonist 5 min, 37° C., read-out: pEC50 M2 (converted)), above 20000 nM; in assay [3] (CHO cells stably expressing human M4, agonist 5 min, 37° C., read-out: pEC50 M4 (converted)) it was 25.1 nM; in assay [4] (CHO cells stably expressing human M3, agonist 5 min, 37° C., read-out: pEC50 M3 (converted)) it was above 20000 nM. The Emax was 87% in assay [1] (CHO, read-out: % Emax cf. ACh, M1, CHO cells stably expressing human M1, Emax compared with ACh); 15% in assay [2] (CHO, read-out: % Emax cf. ACh, M2, CHO cells stably expressing human M2, Emax compared with ACh); 77% in assay [3] (CHO, read-out: % Emax cf. ACh, M4, CHO cells stably expressing human M4, Emax compared with ACh); 7% in assay [4] (CHO, read-out: % Emax cf. ACh, M3, CHO cells stably expressing human M3, Emax compared with ACh).
